Consider 6 compounds from paper PMC8453848, “Effect of GLPG1205, a GPR84 Modulator, on CYP2C9, CYP2C19, and CYP1A2 Enzymes: In Vitro and Phase 1 Studies” (Clinical Pharmacology in Drug Development, 2021).

Series [1] concerns the target T1, CYP1A2 (Homo sapiens, UniProt P05177).
T1 sequence (P05177 1-516): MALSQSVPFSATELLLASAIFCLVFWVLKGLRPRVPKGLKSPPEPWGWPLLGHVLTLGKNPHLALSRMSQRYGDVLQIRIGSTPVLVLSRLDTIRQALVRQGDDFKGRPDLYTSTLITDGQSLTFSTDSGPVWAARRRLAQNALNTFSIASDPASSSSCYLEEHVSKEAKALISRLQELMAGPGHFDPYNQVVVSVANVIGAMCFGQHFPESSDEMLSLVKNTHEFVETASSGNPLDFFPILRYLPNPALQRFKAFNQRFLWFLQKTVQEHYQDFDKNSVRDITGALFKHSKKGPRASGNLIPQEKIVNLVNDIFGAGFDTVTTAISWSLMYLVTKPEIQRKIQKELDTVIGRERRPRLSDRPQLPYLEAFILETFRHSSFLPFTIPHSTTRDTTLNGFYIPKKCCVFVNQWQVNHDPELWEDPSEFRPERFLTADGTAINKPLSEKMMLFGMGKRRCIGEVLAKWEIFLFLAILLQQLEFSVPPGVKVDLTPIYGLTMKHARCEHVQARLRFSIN
The following applies: for R_AUC0‐t (metabolite‐over‐parent ratio): geometric mean (geometric CV%); for tmax: median (min‐max).
Method: (§1) This was a phase 1 single‐center, randomized, double‐blind, placebo‐controlled crossover drug‐drug interaction study (ClinicalTrials.gov number NCT02623296).
(§2) Subjects received treatment in 1 of 2 sequences (AB or BA, n = 7 in each sequence). In treatment A, oral doses of GLPG1205 100 mg once a day were administered from day 1 to day 12. On day 13, GLPG1205 100 mg (capsule form) was coadministered with the CYP450 substrates following an overnight fast. In treatment B, oral doses of placebo (capsule form) once a day were administered from day 1 to day 12. On day 13 placebo was coadministered with the CYP450 substrates following an overnight fast. Dose administration on day 13 was followed by a 4‐hour fast. The 2 treatment sequences were separated by a washout period of at least 28 days.
(§3) Pharmacokinetic assessments included analysis of GLPG1205, and the CYP450 substrates and their metabolites in plasma. In each treatment period, blood samples were collected by venipuncture in the arm predose on days 7, 9, 10, and 13 and on day 13 at 1, 2, 4, 6, 8, 12, 24 (day 14), 48 (day 15), 96 (day 17), and 144 (day 19) hours postdose for PK analysis. For treatment period 2, an additional blood sample was also taken at 168 hours (day 20; follow‐up visit) postdose. Samples collected on days 7, 9, and 10 were for GLPG1205 analysis only. Blood samples of 2 mL were collected for the determination of GLPG1205 in plasma, and of 9 mL for the determination of CYP450 substrates and their metabolites. After collection, blood samples were immediately chilled using an ice bath. Within 30 minutes of collection, samples were separated by centrifugation at 1500 g for 10 minutes at 4°C. For GLPG1205, ≥250 μL of plasma was transferred into 2.0‐mL polypropylene tubes and stored at –20°C or below immediately after centrifugation at the clinical center until shipment to analysis centers. For CYP450 substrates, 500 μL of plasma was transferred to 2.0‐mL polypropylene tubes. […] All samples were shipped on dry ice to analysis centers. Repetitive freeze‐thaw cycles were avoided to maintain the integrity of samples. Plasma concentrations were measured using LC‐MS/MS; further details can be found in the Supplemental Methods. Pharmacokinetic calculations were performed by SGS LSS using Phoenix WinNonLin 6.2 or higher (Pharsight Corporation, Palo Alto, California). […] Values below the quantification limit were imputed by 0 for the calculation of descriptive statistics except for geometric mean and geometric coefficient of variation (CV), for which it was imputed by half the lower limit of quantification.
(§4) An analysis of variance (ANOVA) with treatment, treatment period, and sequence as fixed effects and subject as a random effect was performed on natural log‐transformed PK parameters (R, Cmax, AUC0‐inf, AUC0‐t, and t1/2,λz) of CYP450 substrates and their metabolites on day 13. The treatment effect for tmax was assessed using the nonparametric Wilcoxon's signed rank test. Point estimates were calculated as the geometric mean of the individual ratios for each parameter for treatment A (GLPG1205 + CYP450 substrates) relative to treatment B (placebo + CYP450 substrates) and expressed as fold difference.

The target of series [2] is T1, CYP1A2. Briefly: clinical. The following applies: male, plasma, oral; for half-life: t1/2, λz.
Method: as §1, §2, §3, §4
The next series deals with CYP2C19 (Homo sapiens, UniProt P33261). Briefly: Phase 1 drug-drug interaction study: PK of omeprazole and 5-hydroxyomeprazole with placebo or GLPG1205. The following applies: for tmax: median (min‐max); for AUC: male, plasma, oral, arithmetic mean (CV%). The method, then:
Prior to injection into the analytical system, isolation of omeprazole, its metabolite and the deuterated IS (omeprazole –d3) from 200 µL of human Li-heparin plasma was performed by solid phase extraction performed on Oasis HBL 60mg 3cc cartridges (Waters, Zellik, Belgium). The elution from the cartridges was done with 1 mL of methanol and then the eluate was evaporated to dryness under a stream of nitrogen at approximatively +35°C. The residue was reconstituted with 0.2 mL of mobile phase and then centrifuged at about 3500 rpm for 5 minutes at +5°C. 120 µL of the clear supernatant was transferred into injection vials. […] Chromatographic separation was performed on a Zorbax XBD-C8 column (Agilent, Eindhoven, The Netherlands) (50 x 4.6 mm, 3.5 µm from Interchim) by using a Nexera HLPC system (Shimadzu, Kyoto, Japan) in isocratic elution mode.

The next series deals with CYP2C9 (Homo sapiens, UniProt P11712). The following applies: for AUC0‐inf: arithmetic mean (CV%); for tmax: median (min‐max).
Sequence of CYP2C9 (P11712 whole entry): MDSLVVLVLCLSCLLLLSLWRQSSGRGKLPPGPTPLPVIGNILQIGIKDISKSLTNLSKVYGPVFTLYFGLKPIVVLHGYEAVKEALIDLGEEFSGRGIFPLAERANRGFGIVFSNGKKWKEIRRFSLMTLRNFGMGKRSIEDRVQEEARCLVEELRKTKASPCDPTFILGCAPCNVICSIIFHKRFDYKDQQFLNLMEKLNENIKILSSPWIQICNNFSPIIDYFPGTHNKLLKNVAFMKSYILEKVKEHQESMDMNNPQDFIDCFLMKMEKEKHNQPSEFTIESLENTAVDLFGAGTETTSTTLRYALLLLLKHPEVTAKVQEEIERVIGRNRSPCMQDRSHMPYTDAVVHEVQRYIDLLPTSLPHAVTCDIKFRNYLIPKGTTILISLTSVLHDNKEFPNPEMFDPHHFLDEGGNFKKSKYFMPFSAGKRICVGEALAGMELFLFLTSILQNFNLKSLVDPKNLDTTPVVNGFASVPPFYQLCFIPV
The mark [3] stands for this setting: GLPG1205 100 mg once a day + caffeine.
[4] abbreviates: GLPG1205 relative to placebo (ANOVA).
[5] abbreviates: AUC0‐t, GLPG1205 100 mg once a day + caffeine, arithmetic mean (CV%).
Where [6] appears, read: AUC0‐t, Placebo + caffeine, arithmetic mean (CV%).
Where [7] appears, read: GLPG1205 100 mg once a day + caffeine 100 mg day 13, n = 14, arithmetic mean (CV%).
The mark [8] stands for this setting: Placebo + caffeine 100 mg day 13, n = 14, arithmetic mean (CV%).
The mark [9] stands for this setting: GLPG1205 100 mg once a day + warfarin.

SMILES strings stand for the structures. Like-named read-outs stand apart in the source and are kept apart here.

Sequence of CYP2C19 (P33261 whole entry): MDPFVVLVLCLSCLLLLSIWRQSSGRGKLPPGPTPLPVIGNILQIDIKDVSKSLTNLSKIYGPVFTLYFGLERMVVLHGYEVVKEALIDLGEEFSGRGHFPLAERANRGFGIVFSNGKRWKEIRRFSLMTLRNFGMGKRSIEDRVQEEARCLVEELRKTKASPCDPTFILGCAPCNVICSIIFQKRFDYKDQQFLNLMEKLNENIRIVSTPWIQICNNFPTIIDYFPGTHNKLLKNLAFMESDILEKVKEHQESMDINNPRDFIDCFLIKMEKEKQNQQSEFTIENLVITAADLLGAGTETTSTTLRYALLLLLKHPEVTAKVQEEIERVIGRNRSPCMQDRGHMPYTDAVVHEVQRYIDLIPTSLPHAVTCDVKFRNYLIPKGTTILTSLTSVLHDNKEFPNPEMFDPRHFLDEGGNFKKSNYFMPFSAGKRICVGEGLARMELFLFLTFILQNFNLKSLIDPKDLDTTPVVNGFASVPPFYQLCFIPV
Method for CYP2C9: as §1, §2, §3, §4

With `Cn1c(=O)[nH]c2ncn(C)c2c1=O` [Paraxanthine, paraxanthine], the “R_AUC0‐t (metabolite‐over‐parent ratio)” value at CYP1A2 [1] (setting [3]) is recorded as 0.538 (27.7); on CYP1A2 [1] (Placebo + caffeine), 0.539 (30.5). In addition, at CYP1A2 [1] (setting [3]), the tmax was 7.0 (0.3‐12.0) h. Further, the “AUC0‐t, PE (90% CI) of least‐squares geometric means ratio” value on CYP1A2 [1] (setting [4]) is 0.96 (0.79‐1.16). Besides, the “Cmax, PE (90% CI) of least‐squares geometric means ratio” value at CYP1A2 [1] (setting [4]) is 1.08 (0.97‐1.21). Besides, the “R_AUC0‐t, PE (90% CI) of least‐squares geometric means ratio” value at CYP1A2 [1] (setting [4]) is given as 1.00 (0.87‐1.15). In addition, the values for the AUC on CYP1A2 [2] (setting [5]) and on CYP1A2 [2] (setting [6]) were 8600 ng·h/mL and 8430 ng·h/mL, respectively. Besides, the figures for the Cmax at CYP1A2 [2] (setting [7]) and on CYP1A2 [2] (setting [8]) were 634 ng/mL and 577 ng/mL, respectively.

For the compound `COc1ccc2[nH]c([S+]([O-])Cc3ncc(C)c(OC)c3C)nc2c1` (centres unmarked) [Omeprazole, omeprazole, reference compound], the tmax on CYP2C19 (GLPG1205 100 mg once a day + omeprazole) was 2.0 (1.0‐5.0) h; at CYP2C19 (Placebo + omeprazole), 3.0 (2.0‐5.0) h. In addition, the “AUC0‐inf, PE (90% CI) of least‐squares geometric means ratio” value at CYP2C19 (setting [4]) was 1.36 (1.18‐1.58). For the same compound, the “AUC0‐t, PE (90% CI) of least‐squares geometric means ratio” value on CYP2C19 (setting [4]) is listed as 1.28 (1.10‐1.49). Further, the “Cmax, PE (90% CI) of least‐squares geometric means ratio” value at CYP2C19 (setting [4]) is given as 1.30 (1.03‐1.65). In addition, the “t1/2, λz, PE (90% CI) of least‐squares geometric means ratio” value at CYP2C19 (setting [4]) is 1.09 (0.97‐1.22). For the same compound, the area under the curve (AUC) at CYP2C19 (human, 20 mg, AUC0‐inf, Placebo + omeprazole) was found to be 520 ng·h/mL; at CYP2C19 (human, 20 mg, AUC0‐t, Placebo + omeprazole), 486 ng·h/mL; at CYP2C19 (human, AUC0‐inf, GLPG1205 100 mg once a day + omeprazole) it was 548 ng·h/mL; at CYP2C19 (human, AUC0‐t, GLPG1205 100 mg once a day + omeprazole) it was 563 ng·h/mL.

As for `COc1ccc2nc([S+]([O-])Cc3ncc(CO)c(OC)c3C)[nH]c2c1` (centres unmarked) [5‐Hydroxyomeprazole, 5‐hydroxyomeprazole], on CYP2C19 (human, in vivo), the “AUC0‐inf, PE (90% CI) of least‐squares geometric means ratio” value was 1.08 (0.98‐1.20) and the “AUC0‐t, PE (90% CI) of least‐squares geometric means ratio” value is 1.08 (0.96‐1.21). Further, on CYP2C19 (in vivo), the “R_AUC0‐inf, PE (90% CI) of least‐squares geometric means ratio” value is given as 0.83 (0.77‐0.89) and the “R_AUC0‐t, PE (90% CI) of least‐squares geometric means ratio” value is on record as 0.84 (0.79‐0.89).

In the case of `CC(=O)C[C@@H](c1ccccc1)c1c(O)c2ccc(O)cc2oc1=O` [(S)‐7‐Hydroxywarfarin, (S)‐7‐hydroxywarfarin], the “AUC0‐t, PE (90% CI) of least‐squares geometric means ratio” value at CYP2C9 (human, in vivo) is 1.15 (1.00‐1.32). The “R_AUC0‐t, PE (90% CI) of least‐squares geometric means ratio” value on CYP2C9 (in vivo) is on record as 1.01 (0.87‐1.19).

For the compound `Cn1c(=O)c2c(ncn2C)n(C)c1=O` [Caffeine, caffeine], the tmax on CYP1A2 [1] (Placebo + caffeine) is given as 1.0 (0.3‐3.0) h. Also, the AUC was determined as 17400 ng·h/mL at CYP1A2 [2] (AUC0‐inf, GLPG1205 100 mg once a day + caffeine, arithmetic mean (CV%)); 18700 ng·h/mL on CYP1A2 [2] (AUC0‐inf, Placebo + caffeine, n = 12, arithmetic mean (CV%)); 15700 ng·h/mL at CYP1A2 [2] (setting [5]); 16300 ng·h/mL at CYP1A2 [2] (setting [6]). The results for the Cmax at CYP1A2 [2] (setting [7]) and on CYP1A2 [2] (setting [8]) were 2160 ng/mL and 2150 ng/mL, respectively. Also, the half-life at CYP1A2 [2] (GLPG1205 100 mg once a day + caffeine, arithmetic mean (CV%)) was 4.9 h; at CYP1A2 [2] (Placebo + caffeine, n = 13, arithmetic mean (CV%)) it was 5.73 h.

As to `CC(=O)C[C@@H](c1ccccc1)c1c(O)c2ccccc2oc1=O` [(S)‐Warfarin, (S)‐warfarin], the Cmax at CYP2C9 (GLPG1205 100 mg once a day + warfarin 10 mg day 13, n = 14, arithmetic mean (CV%)) is on record as 0.481 (19.8) μg/mL; on CYP2C9 (Placebo + warfarin 10 mg day 13, n = 14, arithmetic mean (CV%)), 0.453 (21.3) μg/mL. The “AUC0‐inf” value was 17.5 (24.9) μg·h/mL on CYP2C9 (setting [9]) and 15.1 (21.1) μg·h/mL at CYP2C9 (Placebo + warfarin). For the same compound, the tmax on CYP2C9 (setting [9]) and at CYP2C9 (Placebo + warfarin) was 2.0 (0.5‐4.0) h in each case.
